Measurements taken from PMC6071666 (Bioorganic & medicinal chemistry, 2018).

Target: LSD1 (Homo sapiens, UniProt O60341)
Assay: in vitro demethylation of H3K4me2 peptide by GST-LSD1, mass spectrometry readout
Format: biochemical

Question: For CC(C)(C)OC(=O)NC1CC1c1ccc(OC(=O)OC(C)(C)C)cc1 (stereo not shown) [compound 3, tert-butyl 2-(4-(tert-butoxycarbonyloxy)phenyl)cyclopropylcarbamate], which IC50 is on record?
Answer: ~21.2 µM
